Measurements taken from patent US20220281848A1, “PYRAZOLE-SUBSTITUTED PYRROLIDINONES AS HERBICIDES” (FMC Corporation, priority 2019, published 2022).

Test system: plants
Assay: Test D pre-emergence, other plants of Tables D1 and D3
Format: in vivo
Details: for damage to plant (100=total damage to plant; 0=no damage to plant), SORVU: preemergent, 20 DAA; for damage to plant, ALOMY / damage to plant, AVEFA / damage to plant, BEAVA / damage to plant, BROTE / damage to plant, BRSNN / damage to plant, CHEAL / damage to plant, GALAP / damage to plant, HORVW / damage to plant, KCHSC / damage to plant, LOLPE / damage to plant, POAAN / damage to plant, POLCO / damage to plant, SINAR / damage to plant, STEME / damage to plant, VERPE: pre-emergence, 100=total damage, 0=no damage
Outline: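 Seeds treated with herbicide safener; sown in soil; glasshouse, 16 h light, 65% humidity. Sprayed day 1 (pre) or ~day 12 (post). Spray in 0.2% v/v adjuvant. Scored 0–100 damage: 20 DAA pre, 15 d post.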

CCn1nc([C@H]2CN(C)C(=O)[C@@H]2C(=O)Nc2cccc(F)c2F)c2cc(F)ccc21 [Compound 8]
damage to plant (100=total damage to plant; 0=no damage to plant), SORVU (rate 250): 20
damage to plant (100=total damage to plant; 0=no damage to plant), SORVU (rate 500): 30
damage to plant, ALOMY (rate 15, 20 DAA): 0
damage to plant, AVEFA (rate 15, 20 DAA): 0
damage to plant, BEAVA (rate 15, 20 DAA): 0
damage to plant, BROTE (rate 15, 20 DAA): 0
damage to plant, BRSNN (rate 15, 20 DAA): 0
damage to plant, CHEAL (rate 15, 20 DAA): 0
damage to plant, GALAP (rate 15, 20 DAA): 0
damage to plant, HORVW (rate 15, 20 DAA): 0
damage to plant, KCHSC (rate 15, 20 DAA): 0
damage to plant, LOLPE (rate 15, 20 DAA): 0
damage to plant, POAAN (rate 15, 20 DAA): 0
damage to plant, POLCO (rate 15, 20 DAA): 0
damage to plant, SINAR (rate 15, 20 DAA): 0
damage to plant, STEME (rate 15, 20 DAA): 0
damage to plant, VERPE (rate 15, 20 DAA): 0
damage to plant, ALOMY (rate 30, 20 DAA): 0
damage to plant, AVEFA (rate 30, 20 DAA): 0
damage to plant, BEAVA (rate 30, 20 DAA): 0
damage to plant, BROTE (rate 30, 20 DAA): 0
damage to plant, BRSNN (rate 30, 20 DAA): 0
damage to plant, CHEAL (rate 30, 20 DAA): 0
damage to plant, GALAP (rate 30, 20 DAA): 0
damage to plant, HORVW (rate 30, 20 DAA): 0
damage to plant, KCHSC (rate 30, 20 DAA): 0
damage to plant, LOLPE (rate 30, 20 DAA): 0
damage to plant, POAAN (rate 30, 20 DAA): 0
damage to plant, POLCO (rate 30, 20 DAA): 0
damage to plant, SINAR (rate 30, 20 DAA): 0
damage to plant, STEME (rate 30, 20 DAA): 0
damage to plant, VERPE (rate 30, 20 DAA): 0
damage to plant, ALOMY (rate 60, 20 DAA): 0
damage to plant, AVEFA (rate 60, 20 DAA): 0
damage to plant, BEAVA (rate 60, 20 DAA): 0
damage to plant, BROTE (rate 60, 20 DAA): 0
damage to plant, BRSNN (rate 60, 20 DAA): 0
damage to plant, CHEAL (rate 60, 20 DAA): 0
damage to plant, GALAP (rate 60, 20 DAA): 0
damage to plant, HORVW (rate 60, 20 DAA): 0
damage to plant, KCHSC (rate 60, 20 DAA): 0
damage to plant, LOLPE (rate 60, 20 DAA): 0
damage to plant, POAAN (rate 60, 20 DAA): 0
damage to plant, POLCO (rate 60, 20 DAA): 0
damage to plant, SINAR (rate 60, 20 DAA): 0
damage to plant, STEME (rate 60, 20 DAA): 0
damage to plant, VERPE (rate 60, 20 DAA): 0
damage to plant, ALOMY (rate 130, 20 DAA): 0
damage to plant, AVEFA (rate 130, 20 DAA): 0
damage to plant, BEAVA (rate 130, 20 DAA): 0
damage to plant, BROTE (rate 130, 20 DAA): 0
damage to plant, BRSNN (rate 130, 20 DAA): 0
damage to plant, CHEAL (rate 130, 20 DAA): 0
damage to plant, GALAP (rate 130, 20 DAA): 0
damage to plant, HORVW (rate 130, 20 DAA): 0
damage to plant, KCHSC (rate 130, 20 DAA): 0
damage to plant, LOLPE (rate 130, 20 DAA): 0
damage to plant, POAAN (rate 130, 20 DAA): 0
damage to plant, POLCO (rate 130, 20 DAA): 0
damage to plant, SINAR (rate 130, 20 DAA): 0
damage to plant, STEME (rate 130, 20 DAA): 0
damage to plant, VERPE (rate 130, 20 DAA): 0
damage to plant, ALOMY (rate 250, 20 DAA): 0
damage to plant, AVEFA (rate 250, 20 DAA): 0
damage to plant, BEAVA (rate 250, 20 DAA): 0
damage to plant, BROTE (rate 250, 20 DAA): 0
damage to plant, BRSNN (rate 250, 20 DAA): 0
damage to plant, CHEAL (rate 250, 20 DAA): 0
damage to plant, GALAP (rate 250, 20 DAA): 0
damage to plant, HORVW (rate 250, 20 DAA): 0
damage to plant, KCHSC (rate 250, 20 DAA): 0
damage to plant, LOLPE (rate 250, 20 DAA): 0
damage to plant, POAAN (rate 250, 20 DAA): 0
damage to plant, POLCO (rate 250, 20 DAA): 0
damage to plant, SINAR (rate 250, 20 DAA): 0
damage to plant, STEME (rate 250, 20 DAA): 0
damage to plant, VERPE (rate 250, 20 DAA): 0
damage to plant, ALOMY (rate 500, 20 DAA): 10
damage to plant, AVEFA (rate 500, 20 DAA): 10
damage to plant, BEAVA (rate 500, 20 DAA): 0
damage to plant, BROTE (rate 500, 20 DAA): 0
damage to plant, BRSNN (rate 500, 20 DAA): 10
damage to plant, CHEAL (rate 500, 20 DAA): 0
damage to plant, GALAP (rate 500, 20 DAA): 0
damage to plant, HORVW (rate 500, 20 DAA): 10
damage to plant, KCHSC (rate 500, 20 DAA): 0
damage to plant, LOLPE (rate 500, 20 DAA): 0
damage to plant, POAAN (rate 500, 20 DAA): 60
damage to plant, POLCO (rate 500, 20 DAA): 0
damage to plant, SINAR (rate 500, 20 DAA): 0
damage to plant, STEME (rate 500, 20 DAA): 0
damage to plant, VERPE (rate 500, 20 DAA): 0
